The results in this text go back to US10519177B2, “Heterocyclic compounds and uses thereof” (Plexxikon Inc., priority 2013, dated 2019).

SMILES strings stand for the structures. pIC50: −log10 of the molar value.

Test [1] deals with BRD4-BD12 (1-477) (Homo sapiens (Human), UniProt O60885). Put plainly: Alphascreen binding assay BRD4-BD12. The settings on record: BRD4(1 2) H4; read-out: Biochemical activity (IC50 μM) BRD4(1 2) H4. The essentials:
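In this competition format, compounds displace a biotinylated tetra-acetyl H4 peptide from E. coli-expressed human BRD4 bromodomain constructs captured on nickel chelate beads. The reaction runs at pH 7.5 with 2 mM DTT and detergent for 1 h at room temperature before a 30 min bead step.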
For orientation: In Alpha technology, singlet oxygen from a donor bead excites a nearby acceptor bead.

Test [2] deals with MV-4-11 cells. Put plainly: Oncology cell growth assay MV-4-11 (CellTiter Glo). Format: cell-based. The settings on record: Homo sapiens, MV4-11, 72 h; read-out: Cell activity (IC50 μM) MV-4-11 3d-Growth. Put shortly:
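Growth read by CellTiter Glo luminescence after 72 h compound treatment of MLL-AF4-bearing MV-4-11 cells (3000/well). Titration: 8 points, 1:3 steps, maximum 10 μM, 0.2% DMSO final. Data normalized to DMSO wells, four-parameter fit gives pIC50.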
(In general: In ATP-based viability assays light output follows the ATP content of the culture.)

In test [3] the test system is bromodomain. Put plainly: at least one of the bromodomain cell assays of Example 57. The settings on record: at least one of the bromodomain cell assays described in Example 57; read-out: IC50 in at least one of the bromodomain cell assays. Type of test: cell-based.

Turning to `[2H]C([2H])(C1CCC(F)(F)CC1)n1cc(-c2cnn(CCC#N)c2)c2ncc(-c3c(C)noc3C)cc21` [P-0339, 3-[4-[1-[dideuterio-(4,4-difluorocyclohexyl)methyl]-6-(3,5-dimethylisoxazol-4-yl)pyrrolo[3,2-b]pyridin-3-yl)pyrazol-1-yl]propanenitrile], the IC50 in test [1] and in test [2] was under 1 µM throughout. Further, the pIC50 – broadly, −log10 of the IC50, conventionally taken in molar units – in test [3] is over 5.00.
Regarding `[2H]C([2H])(C1CCC(F)(F)CC1)n1cc(-c2cccnc2)c2ncc(-c3c(C)noc3C)cc21` [P-0340, 4-[1-[dideuterio-(4,4-difluorocyclohexyl)methyl]-3-(3-pyridyl)pyrrolo[3,2-b]pyridin-6-yl]-3,5-dimethyl-isoxazole], the concentration for half-maximal inhibition (IC50) in test [1] and in test [2] was under 1 µM in each case. For the same compound, in test [3], the pIC50 was over 5.00.
With `[2H]C([2H])(C1CCC(F)(F)CC1)n1cc(-c2ccnc(C3CC3)c2)c2ncc(-c3c(C)noc3C)cc21` [P-0341, 4-[3-(2-cyclopropyl-4-pyridyl)-1-[dideuterio-(4,4-difluorocyclohexyl)methyl]pyrrolo[3,2-b]pyridin-6-yl]-3,5-dimethyl-isoxazole], the IC50 in test [1] and in test [2] was under 1 µM in each case. Moreover, in test [3], the pIC50 was over 5.00.
Consider `[2H]C([2H])(C1CCC(F)(F)CC1)n1cc(-c2ccc(O)nc2)c2ncc(-c3c(C)noc3C)cc21` [P-0342, 5-[1-[dideuterio-(4,4-difluorocyclohexyl)methyl]-6-(3,5-dimethylisoxazol-4-yl)pyrrolo[3,2-b]pyridin-3-yl]pyridin-2-ol], for which the IC50 in test [1] and in test [2] was under 1 µM throughout. In addition, the pIC50 in test [3] is over 5.00.
Consider `[2H]C([2H])(C1CCC(F)(F)CC1)n1cc(-c2ccc(OC)nc2)c2ncc(-c3c(C)noc3C)cc21` [P-0343, 4-[1-[dideuterio-(4,4-difluorocyclohexyl)methyl]-3-(6-methoxy-3-pyridyl)pyrrolo[3,2-b]pyridin-6-yl]-3,5-dimethyl-isoxazole], for which the IC50 in test [1] and in test [2] was under 1 µM in each case. Moreover, the negative-log IC50 (pIC50) in test [3] was over 5.00.
`[2H]C([2H])(C1CCC(F)(F)CC1)n1cc(-c2ccc(C)nc2)c2ncc(-c3c(C)noc3C)cc21` [P-0344, 4-[1-[dideuterio-(4,4-difluorocyclohexyl)methyl]-3-(6-methyl-3-pyridyl)pyrrolo[3,2-b]pyridin-6-yl]-3,5-dimethyl-isoxazole]: the half-inhibitory concentration (IC50) in test [1] and in test [2] was under 1 µM throughout. Also, the pIC50 in test [3] is over 5.00.
As for `[2H]C([2H])(C1CCC(F)(F)CC1)n1cc(-c2ccc(=O)n(C)c2)c2ncc(-c3c(C)noc3C)cc21` [P-0345, 5-[1-[dideuterio-(4,4-difluorocyclohexyl)methyl]-6-(3,5-dimethylisoxazol-4-yl)pyrrolo[3,2-b]pyridin-3-yl]-1-methyl-pyridin-2-one], the IC50 in test [1] and in test [2] was under 1 µM each time. Further, the pIC50 in test [3] is over 5.00.
Take `[2H]C([2H])(C1CCC(F)(F)CC1)n1cc(-c2cnc(OC)nc2)c2ncc(-c3c(C)noc3C)cc21` [P-0346, 4-[1-[dideuterio-(4,4-difluorocyclohexyl)methyl]-3-(2-methoxypyrimidin-5-yl)pyrrolo[3,2-b]pyridin-6-yl]-3,5-dimethyl-isoxazole]: the IC50 in test [1] and in test [2] was under 1 µM each time. For the same compound, in test [3], the pIC50 was over 5.00.
On to `[2H]C([2H])(C1CCC(F)(F)CC1)n1cc(-c2ccc(N)nc2)c2ncc(-c3c(C)noc3C)cc21` [P-0347, 5-[1-[dideuterio-(4,4-difluorocyclohexyl)methyl]-6-(3,5-dimethylisoxazol-4-yl)pyrrolo[3,2-b]pyridin-3-yl]pyridin-2-amine], for which the IC50 in test [1] and in test [2] was under 1 µM each time. In addition, the negative logarithm of the IC50 (pIC50) in test [3] was over 5.00.
Consider `[2H]C([2H])(C1CCC(F)(F)CC1)n1cc(-c2cnc(N)nc2)c2ncc(-c3c(C)noc3C)cc21` [P-0348, 5-[1-[dideuterio-(4,4-difluorocyclohexyl)methyl]-6-(3,5-dimethylisoxazol-4-yl)pyrrolo[3,2-b]pyridin-3-yl]pyrimidin-2-amine], for which the IC50 in test [1] and in test [2] was under 1 µM throughout. Further, the pIC50 in test [3] is over 5.00.
For `[2H]C([2H])(C1CCC(F)(F)CC1)n1cc(-c2cnc(C3CC3)nc2)c2ncc(-c3c(C)noc3C)cc21` [P-0349, 4-[3-(2-cyclopropylpyrimidin-5-yl)-1-[dideuterio-(4,4-difluorocyclohexyl)methyl)pyrrolo[3,2-b]pyridin-6-yl]-3,5-dimethyl-isoxazole], the IC50 in test [1] and in test [2] was under 1 µM throughout. Further, the pIC50 in test [3] was over 5.00.
Turning to `Cc1noc(C)c1-c1cnc2c(-c3cnn(C(F)F)c3)cn(Cc3ncccn3)c2c1` [P-0350, 4-[3-[1-(difluoromethyl)pyrazol-4-yl]-1-(pyrimidin-2-ylmethyl)pyrrolo[3,2-b]pyridin-6-yl]-3,5-dimethyl-isoxazole], the IC50 in test [1] and in test [2] was under 1 µM in each case. In addition, the pIC50 in test [3] was over 5.00.
Consider `Cc1noc(C)c1-c1cnc2c(-c3cnn(CC(F)(F)F)c3)cn([C@H](C)c3ccc(F)cc3)c2c1` [P-0351, 4-[1-[(1R)-1-(4-fluorophenyl)ethyl]-3-[1-(2,2,2-trifluoroethyl)pyrazol-4-yl]pyrrolo[3,2-b]pyridin-6-yl]-3,5-dimethyl-isoxazole], for which the 50% inhibitory concentration (IC50) in test [1] and in test [2] was under 1 µM throughout. Also, in test [3], the pIC50 was over 5.00.
Take `Cc1noc(C)c1-c1cnc2c(-c3cnn(C(F)F)c3)cn([C@H](C)c3ccc(F)cc3)c2c1` [P-0352, 4-[3-[1-(difluoromethyl)pyrazol-4-yl]-1-[(1R)-1-(4-fluorophenyl)ethyl]pyrrolo[3,2-b]pyridin-6-yl]-3,5-dimethyl-isoxazole]: the IC50 in test [1] and in test [2] was under 1 µM throughout. Besides, in test [3], the pIC50 was over 5.00.
Turning to `Cc1noc(C)c1-c1cnc2c(-c3cnn(CC(F)(F)F)c3)cn(Cc3ncccn3)c2c1` [P-0353, 3,5-dimethyl-4-[1-(pyrimidin-2-ylmethyl)-3-[1-(2,2,2-trifluoroethyl)pyrazol-4-yl]pyrrolo(3,2-b]pyridin-6-yl]isoxazole], the IC50 in test [1] and in test [2] was under 1 µM in each case. For the same compound, in test [3], the pIC50 is over 5.00.
Regarding `Cc1noc(C)c1-c1cnc2c(-c3cnn(CC(F)(F)F)c3)cn([C@@H](C)c3ccc(F)cc3)c2c1` [P-0354, 4-[1-[(1S)-1-(4-fluorophenyl)ethyl]-3-(1-(2,2,2-trifluoroethyl)pyrazol-4-yl]pyrrolo(3,2-b)pyridin-6-yl]-3,5-dimethyl-isoxazole], the IC50 in test [1] and in test [2] was under 1 µM in each case. For the same compound, in test [3], the negative-log IC50 (pIC50) is over 5.00.
As to `Cc1noc(C)c1-c1cnc2c(-c3cnn(C(F)F)c3)cn([C@@H](C)c3ccc(F)cc3)c2c1` [P-0355, 4-[3-[1-(difluoromethyl)pyrazol-4-yl]-1-[(1S)-1-(4-fluorophenyl)ethyl]pyrrolo[3,2-b]pyridin-6-yl]-3,5-dimethyl-isoxazole], the IC50 in test [1] and in test [2] was under 1 µM each time. Further, in test [3], the pIC50 was over 5.00.
